Test results taken from US20100279329A1, “METHOD FOR THE STABILISATION OF PURIFIED P-GLYCOPROTEIN” (UNIVERSITY OF BRIGHTON, priority 2007, published 2010).
Entries after “also recorded” stand apart in the source; their conditions may differ.

Experiments:
P-glycoprotein (P-gp) [1] = biological target: T1, P-glycoprotein (P-gp) (Homo sapiens, UniProt P08183); experiment: ATPase activity, varying ATP concentration (Michaelis-Menten kinetics), colorimetric Pi release; assay type: biochemical; design: made in house; host or cells: Trichoplusia ni (High Five) insect cells, recombinant baculovirus; conditions: for Nicardipine stimulated Vmax / Effect of the disaccharide on nicardipine stimulated ATPase activity (Vmax): 30 μM nicardipine; for Nicardipine stimulated Vmax / Basal Vmax: glycerol purified P-gp, mean (SEM), n=4; for Basal Vmax / Effect of the disaccharide on basal ATPase activity: no drug; for Effect of the disaccharide on nicardipine stimulated ATPase activity (Vmax) / Effect of the disaccharide on basal ATPase activity: 10-300 mM disaccharide added to glycerol purified P-gp, two way ANOVA
T1 sequence (P08183 whole entry): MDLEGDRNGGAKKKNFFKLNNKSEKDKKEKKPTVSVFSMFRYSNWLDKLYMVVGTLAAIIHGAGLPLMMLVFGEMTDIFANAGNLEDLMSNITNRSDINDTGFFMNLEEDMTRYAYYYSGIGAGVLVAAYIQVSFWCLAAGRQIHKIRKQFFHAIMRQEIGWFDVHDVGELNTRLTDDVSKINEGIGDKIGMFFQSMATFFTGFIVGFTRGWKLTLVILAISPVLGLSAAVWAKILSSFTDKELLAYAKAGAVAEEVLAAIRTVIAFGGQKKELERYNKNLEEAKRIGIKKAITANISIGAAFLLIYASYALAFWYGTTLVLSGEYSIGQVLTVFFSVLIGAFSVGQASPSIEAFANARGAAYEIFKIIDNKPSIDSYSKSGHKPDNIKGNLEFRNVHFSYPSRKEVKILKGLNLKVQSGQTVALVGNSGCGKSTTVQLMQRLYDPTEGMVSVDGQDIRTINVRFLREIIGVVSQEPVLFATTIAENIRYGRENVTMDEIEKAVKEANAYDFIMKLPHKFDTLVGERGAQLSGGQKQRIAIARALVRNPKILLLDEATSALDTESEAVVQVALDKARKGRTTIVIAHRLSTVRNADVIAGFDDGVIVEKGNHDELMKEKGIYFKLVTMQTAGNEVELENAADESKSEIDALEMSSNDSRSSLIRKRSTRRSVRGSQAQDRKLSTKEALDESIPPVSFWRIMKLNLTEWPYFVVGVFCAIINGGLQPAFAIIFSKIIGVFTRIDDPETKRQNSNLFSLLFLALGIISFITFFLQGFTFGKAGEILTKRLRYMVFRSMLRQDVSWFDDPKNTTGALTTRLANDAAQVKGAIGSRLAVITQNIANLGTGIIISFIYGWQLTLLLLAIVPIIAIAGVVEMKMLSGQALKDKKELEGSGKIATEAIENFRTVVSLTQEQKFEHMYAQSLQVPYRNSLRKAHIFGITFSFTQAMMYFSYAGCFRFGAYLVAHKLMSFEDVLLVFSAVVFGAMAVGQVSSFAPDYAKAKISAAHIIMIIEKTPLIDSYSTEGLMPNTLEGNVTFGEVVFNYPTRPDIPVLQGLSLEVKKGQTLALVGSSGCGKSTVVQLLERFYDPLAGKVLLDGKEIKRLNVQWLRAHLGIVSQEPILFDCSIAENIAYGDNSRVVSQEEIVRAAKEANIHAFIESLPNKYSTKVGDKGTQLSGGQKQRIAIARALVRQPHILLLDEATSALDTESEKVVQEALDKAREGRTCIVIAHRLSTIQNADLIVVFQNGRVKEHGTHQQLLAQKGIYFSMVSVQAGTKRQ
Method: A colorimetric assay (Chifflet et al., 1988) was used to determine ATP hydrolysis via release of inorganic phosphate. P-gp activity was expressed as μmol Pi/min/mg protein.
A 0-20 nmol standard curve was set up using KH2PO4 as a source of Pi. Background Pi was measured using wells containing no protein or drug only ATP and ATPase buffer (50 mM Tris pH 7.4, 150 mM NH4Cl, 5 mM MgSO4, 0.02% (w/v) NaN3).
The plate was incubated for 20 minutes at 37° C. and the reaction quenched by rapid addition of 40 μl 12% (w/v) SDS to all wells. 100 μl of a 1:1 mixture of 6% (w/v) ascorbate in 1M HCl:1% (w/v) ammonium molybdate (prepared after the reaction had been quenched due to its sensitivity to light) was added to all wells and the plate was incubated for 5 minutes at room temperature. Finally, 100 μl 2% (w/v) sodium citrate/sodium metaarsentie/2% (v/v) acetic acid was added and the plate incubated at 37° C. for 15 minutes. The plate was then allowed to cool and the absorbance measured at a wavelength of 750 nm in a plate reader (SpectraMax 250, Molecular Devices/Multiskan Ascent). The amount of Pi released was calculated from the Pi standard curve and the ATPase activity of P-gp calculated.
The amount of protein (mg) in 20 μl was calculated from the protein concentration determined by BSA standard curve (see 1.2.8) allowing ATPase activity to be determined as μmol/min/mg protein. The Michaelis-Menten equation (Equation 1) was fitted to a graph of ATPase activity using non-linear least squares fit (GraphPad Prism 4.0).
Both varying ATP and varying drug assays were performed.

[2] = biological target: T2, plasma membrane H+-ATPase (Kluyveromyces lactis, UniProt P49380); conditions: cited from earlier work
T2 sequence (P49380 1-899): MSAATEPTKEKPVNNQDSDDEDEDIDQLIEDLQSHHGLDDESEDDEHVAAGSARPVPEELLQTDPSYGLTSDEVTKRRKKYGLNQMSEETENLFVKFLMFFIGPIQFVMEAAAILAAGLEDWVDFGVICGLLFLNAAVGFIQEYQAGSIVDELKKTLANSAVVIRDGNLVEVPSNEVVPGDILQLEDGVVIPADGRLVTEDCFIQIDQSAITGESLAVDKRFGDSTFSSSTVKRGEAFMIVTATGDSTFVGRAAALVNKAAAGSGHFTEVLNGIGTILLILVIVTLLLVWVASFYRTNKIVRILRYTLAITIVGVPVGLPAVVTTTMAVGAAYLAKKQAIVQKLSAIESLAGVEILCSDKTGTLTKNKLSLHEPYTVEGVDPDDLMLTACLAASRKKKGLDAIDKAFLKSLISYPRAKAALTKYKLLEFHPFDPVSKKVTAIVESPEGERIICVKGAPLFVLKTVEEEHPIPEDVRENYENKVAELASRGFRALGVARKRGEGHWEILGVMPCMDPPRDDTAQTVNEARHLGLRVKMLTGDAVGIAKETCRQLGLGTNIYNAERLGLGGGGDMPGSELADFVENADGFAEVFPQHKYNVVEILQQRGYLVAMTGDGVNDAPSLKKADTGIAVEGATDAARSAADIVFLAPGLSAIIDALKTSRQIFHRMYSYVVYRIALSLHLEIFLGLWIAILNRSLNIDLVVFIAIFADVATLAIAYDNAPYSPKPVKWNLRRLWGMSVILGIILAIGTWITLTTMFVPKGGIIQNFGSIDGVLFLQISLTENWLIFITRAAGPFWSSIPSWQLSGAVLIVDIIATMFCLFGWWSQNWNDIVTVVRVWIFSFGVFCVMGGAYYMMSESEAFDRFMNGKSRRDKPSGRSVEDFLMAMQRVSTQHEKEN

P-glycoprotein (P-gp) [3] = biological target: T1, P-glycoprotein (P-gp); experiment: ATPase activity, varying drug concentration at constant ATP concentration (dose response); conditions: 300 mM disaccharide vs none; glycerol purified P-gp; two way ANOVA
From the text: The assay was set up, conducted and read in conditions identical to those described above. […] The equation for the general dose response curve is given below (Equation 2).
Equation 2: The general dose response curve equation, where • V=rate of hydrolysis expressed as μmol/min/mg Pi, • Vmax=maximum rate of hydrolysis, • Vmin=minimum rate of hydrolysis, • [D]=concentration of drug, and • EC50=concentration of drug required to produce half maximum rate of hydrolysis.
The highest concentration was similar to that found in the reaction volume of an ATPase assay when a 20% (w/v) buffer was used (10 mM-300 mM). […] Both varying ATP and varying drug assays were performed.

P-glycoprotein (P-gp) [4] = biological target: T1, P-glycoprotein (P-gp); experiment: ATPase activity of P-gp proteoliposomes after freeze drying, rehydration and storage; assay type: biochemical; design: made in house; host or cells: Trichoplusia ni (High Five) insect cells, recombinant baculovirus; conditions: storage at 4° C. only
Method: All freeze drying was carried out using a CHRIST Alpha 2-4 (MartinChrist, Germany) with the condenser temperature set to −80° C. Initial experiments were performed with product in micro-centrifuge tubes. Later experiments were performed using 2 ml glass freeze drying vials and freeze drying injection stoppers in conjunction with a stoppering system. This permitted vials to be sealed under vacuum, thus avoiding moisture uptake from the atmosphere when the chamber pressure was raised to atmospheric. In all experiments the shelf was pre-cooled to −80° C. to avoid melting of products whilst the chamber was being evacuated to the required pressure.
In order for freeze drying to be considered successful P-gp must have at least retained ATPase activity on rehydration immediately after freeze drying. On completion of the freeze drying cycle the solid product cake was rehydrated with distilled water. The product vial was vortexed to ensure the dried product was completely dissolved and rehydrated. […]
P-gp proteoliposomes were freeze dried, sealed and stored at a range of temperatures (4° C., 20° C. and 37° C.) and ATPase activity was assessed at intervals up to 150 days. […]
Following rehydration of P-gp proteoliposomes the ATPase activity was measured as described earlier. Activity was assessed following storage at 4° C., 20° C. and 37° C. at intervals up to 30 days.

## OC[C@H]1O[C@H](O[C@H]2O[C@H](CO)[C@@H](O)[C@H](O)[C@H]2O)[C@H](O)[C@@H](O)[C@@H]1O [Trehalose, α-D-glucopyranosyl (1-1) α-D-glucopyranose]
P-glycoprotein (P-gp) [1]; 10 mM trehalose
  Nicardipine stimulated Vmax: 4.7 (1.6) μmol/min/mg
  Basal Vmax: 0.86 (0.67) μmol/min/mg
P-glycoprotein (P-gp) [1]; 30 mM trehalose
  Nicardipine stimulated Vmax: 5.6 (2.3) μmol/min/mg
  Basal Vmax: 0.63 (0.4) μmol/min/mg
P-glycoprotein (P-gp) [1]; 100 mM trehalose
  Nicardipine stimulated Vmax: 4.9 (2.1) μmol/min/mg
  Basal Vmax: 1.0 (0.86) μmol/min/mg
P-glycoprotein (P-gp) [1]; 300 mM trehalose
  Nicardipine stimulated Vmax: 3.7 (1.3) μmol/min/mg
  Basal Vmax: 0.7 (0.54) μmol/min/mg
P-glycoprotein (P-gp) [1]
  Effect of the disaccharide on nicardipine stimulated ATPase activity (Vmax): did not affect; also recorded: does not affect; also recorded: no significant difference
  Effect of the disaccharide on basal ATPase activity: does not affect; also recorded: no significant difference
[2]; 0.6 M to 0.8M trehalose, 20° C.
  Effect on ATPase activity of plasma membrane H+-ATPase: inhibit
[2]; high trehalose concentrations, 40° C.
  Reduction in Vmax of plasma membrane H+-ATPase: negligible
P-glycoprotein (P-gp) [3]
  Effect of the disaccharide on potency of nicardipine to stimulate ATPase activity: did not affect; also recorded: unaffected; also recorded: no significant difference

## OC[C@H]1O[C@H](O[C@H]2[C@H](O)[C@@H](O)[C@@H](O)O[C@@H]2CO)[C@H](O)[C@@H](O)[C@@H]1O [Maltose, α-D-glucopyranosyl (1-4) α-D-glucopyranose]
P-glycoprotein (P-gp) [1]; 10 mM maltose
  Nicardipine stimulated Vmax: 1.7 (1.1) μmol/min/mg
  Basal Vmax: 0.1 (0.4) μmol/min/mg
P-glycoprotein (P-gp) [1]; 30 mM maltose
  Nicardipine stimulated Vmax: 1.1 (0.6) μmol/min/mg
  Basal Vmax: 0.1 (0.1) μmol/min/mg
P-glycoprotein (P-gp) [1]; 100 mM maltose
  Nicardipine stimulated Vmax: 1.0 (0.3) μmol/min/mg
  Basal Vmax: 0.1 (0.6) μmol/min/mg
P-glycoprotein (P-gp) [1]; 300 mM maltose
  Nicardipine stimulated Vmax: 0.9 (0.4) μmol/min/mg
  Basal Vmax: 0.1 (0.2) μmol/min/mg
P-glycoprotein (P-gp) [1]
  Effect of the disaccharide on nicardipine stimulated ATPase activity (Vmax): no significant affect; also recorded: did not alter; also recorded: does not effect; also recorded: no significant difference
  Effect of the disaccharide on basal ATPase activity: remained unchanged; also recorded: no significant difference
P-glycoprotein (P-gp) [4]
  Time for which P-gp ATPase activity is preserved after freeze drying: ≤ 12 days
